Measured values published in paper PMC10013843 (Molecular psychiatry, 2022).

Columns and labels:
sigma-1 receptors = sigma-1 receptors (Rattus norvegicus, UniProt Q9R0C9); details: cited from earlier work
HCN1 channel [1] = molecular target: T1, HCN1 channel (Homo sapiens, UniProt O60741); test: HCN1 channel functional interaction; assay type: biochemical
T1 sequence (O60741 1-890): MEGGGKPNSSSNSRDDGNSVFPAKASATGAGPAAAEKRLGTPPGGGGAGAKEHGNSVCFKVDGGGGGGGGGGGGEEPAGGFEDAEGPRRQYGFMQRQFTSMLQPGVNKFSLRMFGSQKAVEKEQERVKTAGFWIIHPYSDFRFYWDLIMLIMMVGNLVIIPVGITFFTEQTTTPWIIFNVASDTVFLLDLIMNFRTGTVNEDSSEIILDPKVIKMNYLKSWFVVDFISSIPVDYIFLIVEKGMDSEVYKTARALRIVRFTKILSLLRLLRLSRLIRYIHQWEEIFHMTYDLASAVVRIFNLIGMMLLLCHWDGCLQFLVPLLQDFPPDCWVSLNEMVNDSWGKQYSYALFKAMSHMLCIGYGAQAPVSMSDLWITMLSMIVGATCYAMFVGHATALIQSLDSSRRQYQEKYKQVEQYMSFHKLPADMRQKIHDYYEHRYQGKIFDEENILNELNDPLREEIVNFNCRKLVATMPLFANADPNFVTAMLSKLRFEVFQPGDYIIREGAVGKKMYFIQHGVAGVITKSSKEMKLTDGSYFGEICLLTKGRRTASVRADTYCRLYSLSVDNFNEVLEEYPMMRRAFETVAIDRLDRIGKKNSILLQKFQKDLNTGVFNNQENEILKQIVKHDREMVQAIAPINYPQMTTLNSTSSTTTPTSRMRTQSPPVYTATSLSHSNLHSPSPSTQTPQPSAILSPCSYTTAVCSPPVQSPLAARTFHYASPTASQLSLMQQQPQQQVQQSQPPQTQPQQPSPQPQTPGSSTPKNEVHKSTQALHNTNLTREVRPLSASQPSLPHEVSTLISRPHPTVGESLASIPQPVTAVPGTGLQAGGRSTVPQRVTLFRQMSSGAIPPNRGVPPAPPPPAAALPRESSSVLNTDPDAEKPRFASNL

HCN1 channel [2] = molecular target: T1, HCN1 channel; details: cited from earlier work
rats [3] = details: cited from earlier work
MOR and KOR = details: cited from earlier work
MOR (OPRM1) = MOR (OPRM1) (Homo sapiens, UniProt P35372); details: cited from earlier work
KOR (OPRK1) = KOR (OPRK1) (Homo sapiens, UniProt P41145); details: cited from earlier work
[4] = molecular target: kappa-opioid receptors, KOR (Rattus norvegicus, UniProt P34975); details: cited from earlier work
mu-opioid receptors, MOR = mu-opioid receptors, MOR (Rattus norvegicus, UniProt P33535); details: cited from earlier work
rats [5] = details: cited from earlier work; remark: listed apart in the source
rats [6] = test: Heroin self-administration and substitution; assay type: in vivo, rat; details: 0.5 mg/kg/inf IV

Chain of kappa-opioid receptors, KOR (P34975 whole entry): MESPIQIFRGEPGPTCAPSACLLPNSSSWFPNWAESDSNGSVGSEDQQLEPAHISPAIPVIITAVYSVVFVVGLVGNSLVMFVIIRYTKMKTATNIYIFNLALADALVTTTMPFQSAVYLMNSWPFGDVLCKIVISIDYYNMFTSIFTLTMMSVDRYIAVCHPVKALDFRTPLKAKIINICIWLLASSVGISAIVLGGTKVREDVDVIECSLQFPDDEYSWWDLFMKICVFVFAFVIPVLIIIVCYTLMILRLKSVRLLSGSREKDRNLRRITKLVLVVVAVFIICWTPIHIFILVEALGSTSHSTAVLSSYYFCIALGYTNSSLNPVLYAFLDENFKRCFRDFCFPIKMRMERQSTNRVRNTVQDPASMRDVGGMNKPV
Chain of mu-opioid receptors, MOR (P33535 whole entry): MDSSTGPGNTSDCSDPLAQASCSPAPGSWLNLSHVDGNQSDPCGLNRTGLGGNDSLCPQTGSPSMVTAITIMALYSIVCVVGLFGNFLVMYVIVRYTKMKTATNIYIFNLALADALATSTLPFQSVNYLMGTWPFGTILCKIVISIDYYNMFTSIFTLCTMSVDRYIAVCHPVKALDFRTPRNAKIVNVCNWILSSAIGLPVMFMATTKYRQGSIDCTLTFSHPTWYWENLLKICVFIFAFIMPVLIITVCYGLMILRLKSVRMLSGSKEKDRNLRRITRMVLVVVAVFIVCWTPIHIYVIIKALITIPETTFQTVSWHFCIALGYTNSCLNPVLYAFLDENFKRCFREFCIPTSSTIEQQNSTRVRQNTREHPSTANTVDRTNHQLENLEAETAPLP
Chain of KOR (OPRK1) (P41145 whole entry): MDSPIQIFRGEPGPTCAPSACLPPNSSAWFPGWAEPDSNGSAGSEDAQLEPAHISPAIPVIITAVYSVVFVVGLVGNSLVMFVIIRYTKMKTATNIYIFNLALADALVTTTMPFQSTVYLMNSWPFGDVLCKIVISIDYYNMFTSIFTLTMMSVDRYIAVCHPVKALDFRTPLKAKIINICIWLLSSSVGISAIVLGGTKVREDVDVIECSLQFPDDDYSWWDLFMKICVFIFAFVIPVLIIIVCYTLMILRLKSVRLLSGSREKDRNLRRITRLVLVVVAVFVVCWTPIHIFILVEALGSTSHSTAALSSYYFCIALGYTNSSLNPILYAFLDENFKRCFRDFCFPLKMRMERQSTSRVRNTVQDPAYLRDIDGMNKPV
Chain of MOR (OPRM1) (P35372 whole entry): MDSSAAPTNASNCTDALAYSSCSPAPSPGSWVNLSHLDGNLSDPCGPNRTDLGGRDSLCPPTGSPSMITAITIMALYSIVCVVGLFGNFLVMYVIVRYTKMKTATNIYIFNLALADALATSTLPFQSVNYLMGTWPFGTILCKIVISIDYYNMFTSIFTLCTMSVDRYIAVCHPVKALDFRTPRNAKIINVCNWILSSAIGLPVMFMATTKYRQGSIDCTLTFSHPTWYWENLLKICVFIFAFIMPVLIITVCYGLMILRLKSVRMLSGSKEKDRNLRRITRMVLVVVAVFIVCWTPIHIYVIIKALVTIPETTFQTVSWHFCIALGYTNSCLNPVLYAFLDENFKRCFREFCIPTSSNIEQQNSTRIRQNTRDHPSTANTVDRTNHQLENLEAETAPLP
Chain of sigma-1 receptors (Q9R0C9 whole entry): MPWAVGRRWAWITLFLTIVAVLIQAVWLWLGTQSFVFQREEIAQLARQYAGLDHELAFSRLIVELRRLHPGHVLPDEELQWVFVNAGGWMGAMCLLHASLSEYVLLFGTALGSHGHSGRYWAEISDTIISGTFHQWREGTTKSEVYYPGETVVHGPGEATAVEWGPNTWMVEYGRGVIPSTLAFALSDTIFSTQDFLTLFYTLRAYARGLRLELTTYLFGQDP

CNC1(c2ccccc2Cl)CCCCC1=O (racemic) [ketamine, (R,S)-ketamine]
binding to sigma receptors (sigma-1 receptors): weak binding
interaction with the HCN1 channel (HCN1 channel [1]): neither (2R,6R)-HNK nor ketamine interacted
effect on HCN1 channels (HCN1 channel [2]): inhibit

N[C@@]1(c2ccccc2Cl)CCC[C@@H](O)C1=O [(2S,6S;2R,6R)-HNK, (2S,6S;2R,6R)-Hydroxynorketamine]
effect on acute morphine nociception or tolerance (rats [3]): no effect

CN[C@@]1(c2ccccc2Cl)CCCCC1=O [(R)-ketamine]
β-arrestin signaling (MOR and KOR): do not activate
MOR signaling, inhibition of cAMP accumulation (MOR (OPRM1)): partial agonists
KOR signaling, inhibition of cAMP accumulation (KOR (OPRK1)): partial agonists
binding to kappa (KOR) opioid receptors [4]: bind
binding to mu (MOR) opioid receptors (mu-opioid receptors, MOR): bind

CN[C@]1(c2ccccc2Cl)CCCCC1=O [(S)-ketamine]
β-arrestin signaling (MOR and KOR): do not activate
binding to kappa (KOR) opioid receptors [4]: bind
self-administration in rats (rats [5]): is self-administered
pressing on first session after heroin substitution (rats [6]): increased their pressing
self-administration on successive sessions after heroin substitution (rats [6]): escalation of self-administration
binding to mu (MOR) opioid receptors (mu-opioid receptors, MOR): bind
